Data reported in US20060166937A1, “Bisphosphonates for the treatment of atherosclerosis and device comprising them” (priority 2002, published 2006).

Key:
[1] = test system: patient with end stage renal failure undergoing dialysis; assay: Arterial and valve calcification in a renal dialysis patient; type: in vivo, human; details: 90 mg 2-hour i.v. infusion once a month for three months, one year following initial treatment
Method: The Effect of a Bisphosphonate on Arterial and Valve Calcification in a Renal Dialysis Patient A patient with end stage renal failure undergoing dialysis was diagnosed with severe osteoporosis. The patient was treated with 90 mg of pamidronate disodium administered via a 2-hour intravenous infusion once a month for a total of three months. […] This reduction in calcification was independently corraborated by three physicians who viewed the radiographic images in a blinded fashion.

[2] = Stability of zoledronic acid in human plasma; type: in vitro ADME; details: 37° C. for 72 hours
[3] = test system: PDGF receptor immunocomplexes of BALB/c 3T3 cells; details: free drug, day after day
Method: PDGF-stimulated receptor tyrosine kinase assay is performed on the last piece of each sample to determine the zoledronic acid activity. The inhibition of PDGF-stimulated receptor tyrosine kinase activity in vitro is measured in PDGF receptor immunocomplexes of BALB/c 3T3 cells, analogously to the method described by E. Andrejauskas-Buchdunger and U. Regenass in Cancer Research 52, 5353-5358 (1992).

[4] = test system: rat carotid arteries, balloon injured; assay: 28 day rat carotid artery balloon injury model (late neointimal lesion formation); type: in vivo; details: for percent inhibition of neointimal lesion formation: 28 days post-balloon injury
Method: Inhibition of Late Neointimal Lesion Formation in the 28 Day Rat Carotid Artery Balloon Injury Model
Zoledronic acid is tested in the following rat model.
Rats are dosed orally with […]. Daily dosing starts 3 days prior to surgery and continues for 31 days. Rat carotid arteries are balloon injured using a method described by Clowes et al. Lab. Invest. 1983; 49; 208-215. Following sacrifice at 28 days post-balloon injury, carotid arteries are removed and processed for histologic and morphometric evaluation.

[5] = test system: New Zealand White rabbit iliac arteries; assay: Rabbit iliac stent model, restenosis at 28 days; type: in vivo
Method: A combined angioplasty and stenting procedure is performed in New Zealand White rabbit iliac arteries. Iliac artery balloon injury is performed by inflating a 3.0×9.0 mm angioplasty balloon in the mid-portion of the artery followed by “pull-back” of the catheter for 1 balloon length. Balloon injury is repeated 2 times, and a 3.0×12 mm stent is deployed at 6 atm for 30 seconds in the iliac artery. Balloon injury and stent placement is then performed on the contralateral iliac artery in the same manner. A post-stent deployment angiogram is performed. All animals receive oral aspirin 40 mg/day daily as anti-platelet therapy and are fed standard low-cholesterol rabbit chow. Twenty-eight days after stenting, animals are anesthetized and euthanized and the arterial tree is perfused at 100 mmHg with lactated Ringer's for several minutes, then perfused with 10% formalin at 100 mmHg for 15 minutes. The vascular section between the distal aorta and the proximal femoral arteries is excised and cleaned of periadventitial tissue. The stented section of artery is embedded in plastic and sections are taken from the proximal, middle, and distal portions of each stent. All sections are stained with hematoxylin-eosin and Movat pentachrome stains. Computerized planimetry is performed to determine the area of the internal elastic lamina (IEL), external elastic lamina (EEL) and lumen. The neointima and neointimal thickness is measured both at and between the stent struts. The vessel area is measured as the area within the EEL. Data are expressed as mean±SEM. Statistical analysis of the histologic data is accomplished using analysis of variance (ANOVA) due to the fact that two stented arteries are measured per animal with a mean generated per animal. A P<0.05 is considered statistically significant.
Zoledronic acid is administered orally by gavage at 30 mg/kg once daily from 3 days prior to stenting until day 27 post-stenting.

LDLr−/− mice = assay: Mouse model of progression of advanced atherosclerosis with vulnerable plaques (arterial calcification, valve calcification, plaque stabilization); type: in vivo
Method: A mouse model of progression of advanced atherosclerosis with development of vulnerable plaques was employed. Male, 4-6 week old LDLr−/− mice were divided into treatment groups of 18-20 animals each. […] The remaining LDLr−/− animals were dosed subcutaneously once per day with either vehicle or zoledronic acid solution (10 mg/kg/day) five out of seven days a week from week from week 15 through week 18 of diet administration. From weeks 19 through 22, no treatment was administered, however mice remained on the atherosclerosis-inducing high cholesterol/cholic acid diet. Mice were sacrificed at the end of week 22 and the heart and aorta were removed. The upper portion of the heart attached to the most proximal portion of the aorta containing the aortic sinus were embedded in OCT and frozen. 10 micron-thick sections were cut through the aortic sinus using a cryostat. Twenty-eight sections per animal were stained with von Kassa and/or hematoxylin. Cross-sectional areas were analyzed by planimetry to allow determination of atherosclerotic lesion area and extent of calcification within the heart valves. The remaining aorta, from the ascending aorta to the iliac bifurcation, as well as the major branches of the aorta were fixed, parafin embedded and cross sectioned for histologic analysis. Atherosclerosis extent and lesion composition was determined for the aorta and innominate (also called brachiocephalic) arteries using approriate staining methodology including hemotoxylin and eosin staining, Verhoff von Giessen staining for elastin, Von Kassa staining for calcium, and immunohistochemical stains for inflammatory cells.

[6] = at 22 weeks, vs baseline lesions at 15 weeks and vehicle at 22 weeks

In the case of `NCCC(O)(P(=O)(O)O)P(=O)(O)O` [pamidronate disodium, 3-amino-1-hydroxypropane-1,1-diphosphonic acid], the “arterial and valve calcification (radiographic images)” value [1] is reported as “noticeable reduction”.

In the case of `O=P(O)(O)C(O)(Cn1ccnc1)P(=O)(O)O` [zoledronic acid, 2-(imidazol-1yl)-1-hydroxyethane-1,1-diphosphonic acid], the “stability in human plasma” value [2] is reported as “stable”, the “activity over time in the same assay” value [3] is reported as “strong decrease” and the “percent inhibition of neointimal lesion formation” value ([4]; 0.5 mg/kg oral gavage) is reported as 17%. The “percent inhibition of neointimal lesion formation” value ([4]; 2.0 mg/kg oral gavage) was 37%, the “neointimal lesion formation at 28 days following balloon injury” value ([4]; oral, daily, dose of from 0.2 to 3.5 mg) was “significantly reduce” and the “extent of restenotic lesion formation” value ([5]; 30 mg/kg oral gavage once daily, vs placebo) was “marked reduction”. For the same compound, the “EEL area compared with control (constrictive remodeling or aneurysmal-type expansion)” value ([5]; 30 mg/kg oral once daily) was “did not result in differences”, the “healing of the intima in stented arterial segments” value ([5]; 30 mg/kg oral once daily) was “well healed” and the “reduction in average neointimal thickness” value ([5]; 30 mg/kg oral once daily, P<0.0001) was 29%. For the same compound, the “reduction in percent arterial stenosis” value ([5]; 30 mg/kg oral once daily, P<0.0002) was 17%, the “reduction in neointimal area” value ([5]; 30 mg/kg oral once daily, P<0.04) was 17% and the “plaque phenotype (vulnerable or rupture-prone plaques)” value (LDLr−/− mice; 10 mg/kg/day s.c., four weeks, at 22 weeks, vs baseline and vehicle) was “more stable phenotype”. For the same compound, the “calcification of the aortic valves” value (LDLr−/− mice; 10 mg/kg/day s.c., vs placebo-treated animals) was “significantly less calcification”, the “progression of atherosclerosis in the aorta and innominate arteries” value (LDLr−/− mice; 10 mg/kg/day s.c., weeks 15-18, read at 22 weeks of high cholesterol/cholic acid diet, vs vehicle) was “significantly reduced progression” and the “fibrous caps of atherosclerotic lesions” value (LDLr−/− mice; [6]) was “thicker fibrous caps”. The “inflammatory cells and areas of calcification in atherosclerotic lesions” value (LDLr−/− mice; [6]) was “less inflammatory cells and areas of calcification”.
